Source: PubChem BioAssay (NCI)
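Briefly, cells in 96-well plates were exposed to five compound concentrations for 48 h, and endpoints were estimated by linear interpolation. TGI: total growth inhibition.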

Columns and labels:
Assay in all cases: DTP human tumour cell line panel, 48 h
786-0 renal = test system: 786-0 renal
A498 renal = test system: A498 renal
A549 NSCLC = test system: A549 NSCLC
ACHN renal = test system: ACHN renal
BT-549 breast = test system: BT-549 breast
CAKI-1 renal = test system: CAKI-1 renal
CCRF-CEM leukemia = test system: CCRF-CEM leukemia
COLO 205 colon = test system: COLO 205 colon
DU-145 prostate = test system: DU-145 prostate
EKVX NSCLC = test system: EKVX NSCLC
HCC-2998 colon = test system: HCC-2998 colon
HCT-116 colon = test system: HCT-116 colon
HCT-15 colon = test system: HCT-15 colon
HL-60(TB) leukemia = test system: HL-60(TB) leukemia
HOP-62 NSCLC = test system: HOP-62 NSCLC
HOP-92 NSCLC = test system: HOP-92 NSCLC
HS 578T breast = test system: HS 578T breast
HT29 colon = test system: HT29 colon
IGROV1 ovarian = test system: IGROV1 ovarian
K-562 leukemia = test system: K-562 leukemia
KM12 colon = test system: KM12 colon
LOX IMVI melanoma = test system: LOX IMVI melanoma
M14 melanoma = test system: M14 melanoma
MALME-3M melanoma = test system: MALME-3M melanoma
MCF7 breast = test system: MCF7 breast
MDA-MB-231 breast = test system: MDA-MB-231 breast
MDA-MB-435 = test system: MDA-MB-435
MDA-N = test system: MDA-N
MOLT-4 leukemia = test system: MOLT-4 leukemia
NCI-H226 lung = test system: NCI-H226 lung
NCI-H23 lung = test system: NCI-H23 lung
NCI-H460 lung = test system: NCI-H460 lung
NCI-H522 lung = test system: NCI-H522 lung
NCI/ADR-RES ovarian = test system: NCI/ADR-RES ovarian
OVCAR-3 ovarian = test system: OVCAR-3 ovarian
OVCAR-4 ovarian = test system: OVCAR-4 ovarian
OVCAR-5 ovarian = test system: OVCAR-5 ovarian
OVCAR-8 ovarian = test system: OVCAR-8 ovarian
PC-3 prostate = test system: PC-3 prostate
RPMI-8226 leukemia = test system: RPMI-8226 leukemia
RXF 393 renal = test system: RXF 393 renal
SF-268 CNS = test system: SF-268 CNS
SF-295 CNS = test system: SF-295 CNS
SF-539 CNS = test system: SF-539 CNS
SK-MEL-2 melanoma = test system: SK-MEL-2 melanoma
SK-MEL-28 melanoma = test system: SK-MEL-28 melanoma
SK-MEL-5 melanoma = test system: SK-MEL-5 melanoma
SK-OV-3 ovarian = test system: SK-OV-3 ovarian
SN12C renal = test system: SN12C renal
SNB-19 CNS = test system: SNB-19 CNS
SNB-75 CNS = test system: SNB-75 CNS
SR leukemia = test system: SR leukemia
SW-620 colon = test system: SW-620 colon
T-47D breast = test system: T-47D breast
TK-10 renal = test system: TK-10 renal
U251 CNS = test system: U251 CNS
UACC-257 melanoma = test system: UACC-257 melanoma
UACC-62 melanoma = test system: UACC-62 melanoma
UO-31 renal = test system: UO-31 renal

Measured: TGI

CCC(=O)c1cc(C(=O)C(=S)SC)cc(C(=O)C(=S)SC)c1
> 63.4 µM: MOLT-4 leukemia
> 72.6 µM: HL-60(TB) leukemia
> 24.6 µM: CCRF-CEM leukemia
> 100 µM: all other assays above

COc1ccc(O)c(/C=N/NC(=S)N2CCCCC2)c1
> 92.3 µM: HT29 colon
> 67.4 µM: IGROV1 ovarian
> 21.8 µM: K-562 leukemia
20.4 µM: NCI-H23 lung
50.8 µM: HOP-92 NSCLC
> 46 µM: LOX IMVI melanoma
> 65.3 µM: EKVX NSCLC
> 62.7 µM: NCI-H522 lung
> 27.2 µM: RPMI-8226 leukemia
> 47.8 µM: CCRF-CEM leukemia
37.3 µM: MALME-3M melanoma
> 89.5 µM: T-47D breast
19.6 µM: HCC-2998 colon
> 43.1 µM: DU-145 prostate | OVCAR-8 ovarian
23.3 µM: ACHN renal
23.8 µM: UACC-62 melanoma
> 83.4 µM: SK-MEL-28 melanoma
30.9 µM: SK-MEL-5 melanoma
> 23.1 µM: HL-60(TB) leukemia
6.22 µM: UO-31 renal
10.9 µM: M14 melanoma
> 41.5 µM: A498 renal
> 13.4 µM: OVCAR-3 ovarian
> 78.2 µM: 786-0 renal
> 23.2 µM: NCI/ADR-RES ovarian
> 94.9 µM: SNB-19 CNS
> 84.1 µM: CAKI-1 renal
62.9 µM: SF-268 CNS
> 94.8 µM: BT-549 breast
> 20.1 µM: HOP-62 NSCLC
> 30.1 µM: NCI-H460 lung
> 24.5 µM: SR leukemia
7.96 µM: NCI-H226 lung
> 100 µM: all other assays above
